These results are taken from PMC11997307, “Rat Sarcoma (RAS)-Protein-Targeting Synthetic Cell-Penetrating Peptide as an Anticancer Biomaterial” (Biomaterials Research, 2025).

In one assay the test system is MDA-MB-231 cells. The assay is described as follows: Scratch wound migration assay. It is filed as cell-based, human. Particulars: MDA-MB-231, serum-starved monolayer, 6-72 h. On the procedure:
To assess MDA-MB-231 cell migration, 2 methods were employed: a Transwell migration assay and a scratch assay. For the Transwell migration assay, 24-well Transwell plates (8-μm pore size; Costar, Corning Incorporated, Corning, NY, USA) were used to evaluate the invasive potential of the cells. […] Following a 6-h incubation period, nonmigratory cells were carefully removed from the upper surface of the membrane using a PBS-soaked cotton swab. The cells that successfully migrated through the membrane were fixed in methanol for 10 min, and Giemsa staining was used to visualize them. Images were captured using an Olympus DP72 camera at ×100 magnification, and the number of migrated cells in the treated samples was compared with that in the control samples. For the scratch assay, MDA-MB-231 cells (1 × 10^6 cells) were cultured in 6-well plates until they reached confluence. The cells were rinsed with PBS and incubated overnight in serum-free medium. A sterile 200-μl plastic pipette tip was used to create a linear scratch in the center of the monolayer. […] Images were taken immediately after scratching and again after 6, 24, 48, and 72 h of incubation using an Olympus CKX41 inverted microscope at ×20 magnification to evaluate the distance the cells migrated from the wound edge.

In assay [1] the test system is phospho-c-RAF and phospho-ERK1/2 in HT-29 cells. In words: Western blot of RAS-MAPK pathway, HT-29. The following applies: HT-29, 10-250 μM RBP 6 h then 50 ng/ml EGF 10 min. It counts as cell-based, human. On the procedure: Protein expression was confirmed via Western blot analysis. Briefly, 9 × 10^5 cells were cultured in 100-mm-diameter dishes. When they reached 90% confluence, the cells were starved for 18 h in serum-free medium. […] At the end of the culture period, the cells were lysed for 20 min in cold lysis buffer on ice. Protein concentration was measured using bicinchoninic acid protein assays (Thermo Fisher Scientific, MA, USA). Equal aliquots of protein (40 μg) were boiled for 7 min in 5× sample buffer and separated by 10% SDS–PAGE. Proteins were transferred onto nitrocellulose membranes, followed by washing with Tris-buffered saline (TBS) containing 0.1% Tween 20 (TBST). The membranes were then blocked for 60 min at room temperature with 5% skim milk in TBST. Following the washing procedure, the membranes were incubated with primary antibodies (RAS, phospho-ERK1/2, ERK1/2, phospho-RAF proto-oncogene serine/threonine-protein kinase [phospho-c-RAF; S338], c-RAF [Cell Signaling Technology, Beverly, MA, USA], and GAPDH [Santa Cruz Biotechnology, Inc., Santa Cruz, CA, USA]) diluted in TBST containing 5% skim milk at 4 °C for 18 h. […] The membranes were subsequently washed 3 more times, and protein bands were detected using chemiluminescence reagents (West Pico PLUS, Thermo Fisher Scientific, USA).

For the molecule `C[C@@H](O)[C@H](NC(=O)[C@H](CO)NC(=O)[C@H](CS)NC(=O)[C@H](CCCCN)NC(=O)CN)C(=O)N[C@@H](CCCNC(=N)N)C(=O)NCC(=O)N[C@@H](CCCNC(=N)N)C(=O)N[C@@H](CCCCN)C(=O)N[C@@H](CS)C(=O)N[C@@H](CS)C(=O)N[C@@H](CCCNC(=N)N)C(=O)N[C@@H](CCCNC(=N)N)C(=O)N[C@@H](CCCCN)C(=O)N[C@@H](CCCCN)C(N)=O` [RBP], the “tumor cell migration in scratch assay” value in the assay with MDA-MB-231 cells is “significantly inhibited”. For the same molecule, the RAF activation entry in assay [1] was “did not inhibit”. In addition, the ERK1/2 phosphorylation entry in assay [1] (n = 3) is recorded as “did not inhibit”.
